# Experiments:
# rhu-CDC25C = target: T1, rhu-CDC25C (Homo sapiens, UniProt P30307); assay: CDC25C phosphatase OMFP hydrolysis assay; assay type: biochemical
# T1 construct: purchased BIOMOL
# T1 sequence (P30307 1-473): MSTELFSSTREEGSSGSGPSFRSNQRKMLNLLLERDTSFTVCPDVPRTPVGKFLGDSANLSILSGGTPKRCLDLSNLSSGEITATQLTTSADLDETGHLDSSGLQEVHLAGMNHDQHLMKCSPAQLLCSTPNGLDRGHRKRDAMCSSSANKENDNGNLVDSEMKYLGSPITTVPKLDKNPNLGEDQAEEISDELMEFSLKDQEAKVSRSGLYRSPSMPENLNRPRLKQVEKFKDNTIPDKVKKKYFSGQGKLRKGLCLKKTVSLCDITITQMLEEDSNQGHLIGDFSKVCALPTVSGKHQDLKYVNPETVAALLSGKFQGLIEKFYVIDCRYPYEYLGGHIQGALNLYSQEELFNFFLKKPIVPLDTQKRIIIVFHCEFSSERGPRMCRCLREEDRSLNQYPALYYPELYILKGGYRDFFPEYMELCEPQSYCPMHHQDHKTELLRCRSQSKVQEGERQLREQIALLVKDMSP
# Experimental: 200 U of rhu-CDC25C (BIOMOL) was incubated in assay buffer (100 mM Tris-HCL, pH 8.2, 40 mM NaCl, 1 mM DTT, 0.1% BSA, and 20% glycerol) for 1 hour at 37 C with the indicated inhibitors CC-5013, Thalidomide, and CDC25 Phosphatase Inhibitor, NSC, Calbiochem) at the concentrations indicated. The substrate OMFP (3-0-Methylfluorescein phosphate cyclohexylammonium salt, Sigma) was added at 500 μM and tubes were incubated for 60 minutes at 37° C. Samples were read on a spectrophotometer at 477 nm. Percent activity was calculated by subtracting background absorbance and dividing each sample by the CDC25C+control.
# To determine if lenalidomide inhibits CDC25C phosphatase activity, rhu-CDC25C PTP inhibition by lenalidomide and thalidomide were compared to a CDC25C selective inhibitor using the 3-o-methylfluorescein phosphate (OMFP) hydrolysis assay [FIG. 10].
# AML-EH5q cells = assay: Apoptosis by Annexin-V/PI flow cytometry in AML-EH5q cells; assay type: cell-based; details: AML-EH5q (5q-deleted) cells, 24 hours
# Experimental: AML-EH5q (FIG. 8A) and U937 (FIG. 8B) cells were exposed to lenalidomide, thalidomide or vehicle at the concentrations indicated for 24 hours in IMDM and 20% FBS and apoptosis assessed by flow cytometry using Annexin-V/PI staining. Briefly, cells are incubated for 20 minutes at room temperature in 50 mM HEPES (pH 7.4) and 150 mM NaCl containing 2 mM calcium chloride with a mixture of 1 μg/mLAnnexin V-FITC (Boehringer Mannhein, Mannhein, Germany) and 2.5 μg/mL propidium iodide (PI; Sigma-Aldrich) before analysis.
# The hematologic effects of lenalidomide could derive from dual effects that are karyotype-dependent, i.e., (1) the potentiation of erythropoiesis in non-del5q erythroid precursors, and (2) selective suppression of del5q clones. To confirm that lenalidomide is selectively cytotoxic to del-5q clones, an AML cell line transformed from an MDS patient with isolated 5q31 deletion was cultivated and the cell line successfully maintained in suspension culture with recombinant myeloid growth factor supplementation. This cell line [designated AML-EH5q] is an AML cell line that harbors the isolated 5q-deletion. […] To evaluate the selectivity of lenalidomide cytotoxic for del5q clones, apoptotic response to lenalidomide and thalidomide was compared in AML-EH5q and U937 (non-del5q) cells by flow cytometry. […] Viability was unaffected at all concentrations for both agents in U937 cells.
# [1] = system: Jak2 and STAT5 phosphorylation in UT7 cells; assay: Jak2 and STAT5 phosphorylation in UT7 cells with JAK or Src kinase inhibitors (Western); assay type: cell-based
# Experimental: 10×10^7 UT7 cells were serum starved then treated with SKI 606 or AG490 for 30 minutes, CC5013 for 2 hours, and stimulated with EPO (1 U/ml) for 10 minutes at 37° C. Cells were lysed and […] run on a 4-15% Gradient gel (Bio-rad). Antibodies included p-STAT5 (Upstate, 1:1000 in 5% TBS/milk), total STAT5 (Cell Signaling, 1:10000 in 5% TBS/milk), and p-Jak2 (Santa Cruz, 1:500 in 5% TBS/milk). Blots were developed with an ECL detection kit (Amersham).
# To further evaluate the mechanism by which lenalidomide enhances the EPO-R signal, STAT5 activation was assessed in response to EPO+lenalidomide treatment using selective pharmacologic inhibitors of JAK (AG490) or Src ([…]) kinases [FIG. 4].
# [2] = system: MDS patients without 5q deletions; details: cited from earlier work
# STAT5 = assay: EPO-induced phospho-STAT5 MFI in CD71+ primary MDS cells by flow cytometry; assay type: cell-based, human
# Experimental: BM-MNC were serum deprived in IMDM and 0.4% BSA for 1 hour, then treated as described in FIG. 5. RHu-EPO stimulated cells were treated 5 U/ml×15 minutes at 37° C. Cells were fixed in BD Cytofix (Beckon Dickenson) ×10 minutes, washed in BD Stain Buffer then re-suspended in ice cold 90% methanol. After washing ×2, cells were stained with anti-pSTAT5-phycoerthryin (PE) conjugated antibody and CD71-allophycocyanin (APC) conjugated antibody [20 μg/10^6 cells]. Cells were washed ×2 with stain buffer before transfer to FACScan tubes and analysis on the FACScan flow cytometer. The gated CD71+ cell population accounted for 11.35% of BM-MNC. Results reflect phospho-STAT5:PE MFI in a representative patient specimen. Anti-pSTAT5, CD71-APC and CD34-APC antibodies were purchased from BD-Pharmingen.
# To confirm that lenalidomide enhances STAT5 phosphorylation in erythroid precursors from primary BM specimens, BM specimens were evaluated from Low- or Intermediate-1 risk MDS by flow cytometry. As in the UT7 cell line, lenalidomide increased EPO-induced phosphorylation of STAT5 in CD71+ erythroid precursors, whereas lenalidomide alone had no effect on STAT5 phosphorylation [FIG. 3]. The STAT5 phosphorylation delta (PD), i.e., the increase in mean fluorescence intensity (MFI) for EPO-induced STAT5 phosphorylation with the addition of lenalidomide compared to EPO alone was 43.5 relative MFI units, representing a 24% increase in pSTAT5 MF.
smiles,measurement,setting,value
"Nc1cccc2c1CN(C1CCC(=O)NC1=O)C2=O (stereo not shown) [lenalidomide, 3-(4-amino-1-oxo-1,3-dihydro-2H-isoindol-2-yl)piperidine-2,6-dione]",inhibition of CDC25C phosphatase activity,rhu-CDC25C,potent and selective inhibitor
same,induction of programmed cell death (apoptosis),AML-EH5q cells,concentration dependent induction of programmed cell death
same,induction of programmed cell death (apoptosis),AML-EH5q cells; listed as Lenalidomide,selectively induced cell death
same,EPO-induced Jak2-phosphorylation,[1]; lenalidomide + EPO (Lane 7),further augmented
same,Jak2-phosphorylation,[1]; lenalidomide alone (Lane 2),increased
same,patients who benefit from lenalidomide therapy,[2],Approximately 25%
same,EPO-induced phosphorylation of STAT5,"STAT5; CD71+ erythroid precursors, Low- or Intermediate-1 risk MDS BM",increased
same,STAT5 phosphorylation,"STAT5; CD71+ erythroid precursors, lenalidomide alone",no effect
same,STAT5 phosphorylation delta (PD): increase in MFI for EPO-induced STAT5 phosphorylation with lenalidomide compared to EPO alone,"STAT5; CD71+ primary MDS cells, representative patient specimen",43.5 relative MFI units
same,increase in pSTAT5 MFI,"STAT5; EPO + lenalidomide compared to EPO alone, CD71+ cells",24%

# Reference: patent US20220040263A1, “COMPANION DIAGNOSTIC FOR COMBINATION LENALIDOMIDE AND ERYTHROPOIETIN TREATMENT” (H. Lee Moffitt Cancer Center and Research Institute, Inc., priority 2016, published 2022)
